Calls of active or inactive are those of the source.
Tests used:
Escherichia coli = assay: microbe, parasite or virus in culture
Leucine aminopeptidase = target: T1, Leucine aminopeptidase (Plasmodium falciparum 3D7, UniProt Q8IL11); assay: P. falciparum M17LAP inhibitors, primary screen, biochemical, fluorogenic H-Leu-NHMec substrate, 1536-well (AID 1619); assay type: functional
T1 sequence (Q8IL11 whole entry): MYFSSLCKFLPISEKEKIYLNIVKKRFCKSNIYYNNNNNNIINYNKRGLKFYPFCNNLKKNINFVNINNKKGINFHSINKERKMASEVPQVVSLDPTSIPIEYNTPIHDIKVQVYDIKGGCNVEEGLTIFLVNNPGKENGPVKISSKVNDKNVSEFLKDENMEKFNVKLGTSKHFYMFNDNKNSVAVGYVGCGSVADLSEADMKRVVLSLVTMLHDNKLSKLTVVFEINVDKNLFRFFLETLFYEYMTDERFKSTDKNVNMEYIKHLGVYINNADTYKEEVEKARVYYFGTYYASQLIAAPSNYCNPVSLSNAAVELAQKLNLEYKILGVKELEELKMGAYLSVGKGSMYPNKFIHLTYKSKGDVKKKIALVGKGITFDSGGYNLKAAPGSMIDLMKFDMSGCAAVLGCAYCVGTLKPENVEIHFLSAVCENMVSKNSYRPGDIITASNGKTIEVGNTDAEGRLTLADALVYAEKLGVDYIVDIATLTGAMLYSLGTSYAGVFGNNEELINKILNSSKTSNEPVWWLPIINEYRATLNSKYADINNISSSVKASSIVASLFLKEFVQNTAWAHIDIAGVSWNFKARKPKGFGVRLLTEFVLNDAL

Aminopeptidase N = target: T2, Aminopeptidase N (Plasmodium falciparum FcB1/Columbia, UniProt O96935); assay: malaria alanyl aminopeptidase activity blockers – biochemical, fluorogenic H-Leu-NHMec substrate, 1536-well (AID 1445); parameters: species or system Plasmodium falciparum 3D7, 3D7
T2 sequence (O96935 whole entry): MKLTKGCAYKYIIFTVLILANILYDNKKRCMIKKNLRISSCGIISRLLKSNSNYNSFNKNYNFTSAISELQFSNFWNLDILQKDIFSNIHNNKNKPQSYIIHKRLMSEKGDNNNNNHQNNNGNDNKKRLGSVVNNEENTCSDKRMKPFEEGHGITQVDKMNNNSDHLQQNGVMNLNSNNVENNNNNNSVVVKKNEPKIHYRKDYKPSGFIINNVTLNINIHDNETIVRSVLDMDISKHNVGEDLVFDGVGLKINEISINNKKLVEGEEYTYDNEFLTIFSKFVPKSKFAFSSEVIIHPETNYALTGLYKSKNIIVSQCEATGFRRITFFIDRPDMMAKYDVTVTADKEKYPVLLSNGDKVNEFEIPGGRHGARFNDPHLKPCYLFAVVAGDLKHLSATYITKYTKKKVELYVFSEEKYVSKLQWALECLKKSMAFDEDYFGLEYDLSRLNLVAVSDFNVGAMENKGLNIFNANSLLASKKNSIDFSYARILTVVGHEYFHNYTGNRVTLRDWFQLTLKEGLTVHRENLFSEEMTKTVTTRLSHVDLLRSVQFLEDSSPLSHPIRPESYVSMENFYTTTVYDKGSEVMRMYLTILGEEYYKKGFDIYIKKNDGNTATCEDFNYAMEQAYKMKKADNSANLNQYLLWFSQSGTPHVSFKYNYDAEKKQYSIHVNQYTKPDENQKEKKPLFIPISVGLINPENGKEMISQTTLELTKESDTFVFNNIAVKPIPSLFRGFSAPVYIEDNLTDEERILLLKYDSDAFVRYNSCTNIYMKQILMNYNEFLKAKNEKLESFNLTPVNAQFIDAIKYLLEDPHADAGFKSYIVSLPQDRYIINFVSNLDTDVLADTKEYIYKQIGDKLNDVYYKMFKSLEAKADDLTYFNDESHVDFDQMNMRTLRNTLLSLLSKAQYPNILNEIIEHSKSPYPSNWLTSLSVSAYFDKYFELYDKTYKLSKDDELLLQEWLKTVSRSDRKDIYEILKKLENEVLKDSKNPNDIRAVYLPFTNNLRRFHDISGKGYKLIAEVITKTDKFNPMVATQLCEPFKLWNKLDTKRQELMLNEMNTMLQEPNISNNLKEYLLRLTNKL

Beta-galactosidase = Beta-galactosidase (Escherichia coli, UniProt Q8VNN2); assay: PubChem AID 485352; assay type: functional
Chain of Beta-galactosidase (Q8VNN2 whole entry): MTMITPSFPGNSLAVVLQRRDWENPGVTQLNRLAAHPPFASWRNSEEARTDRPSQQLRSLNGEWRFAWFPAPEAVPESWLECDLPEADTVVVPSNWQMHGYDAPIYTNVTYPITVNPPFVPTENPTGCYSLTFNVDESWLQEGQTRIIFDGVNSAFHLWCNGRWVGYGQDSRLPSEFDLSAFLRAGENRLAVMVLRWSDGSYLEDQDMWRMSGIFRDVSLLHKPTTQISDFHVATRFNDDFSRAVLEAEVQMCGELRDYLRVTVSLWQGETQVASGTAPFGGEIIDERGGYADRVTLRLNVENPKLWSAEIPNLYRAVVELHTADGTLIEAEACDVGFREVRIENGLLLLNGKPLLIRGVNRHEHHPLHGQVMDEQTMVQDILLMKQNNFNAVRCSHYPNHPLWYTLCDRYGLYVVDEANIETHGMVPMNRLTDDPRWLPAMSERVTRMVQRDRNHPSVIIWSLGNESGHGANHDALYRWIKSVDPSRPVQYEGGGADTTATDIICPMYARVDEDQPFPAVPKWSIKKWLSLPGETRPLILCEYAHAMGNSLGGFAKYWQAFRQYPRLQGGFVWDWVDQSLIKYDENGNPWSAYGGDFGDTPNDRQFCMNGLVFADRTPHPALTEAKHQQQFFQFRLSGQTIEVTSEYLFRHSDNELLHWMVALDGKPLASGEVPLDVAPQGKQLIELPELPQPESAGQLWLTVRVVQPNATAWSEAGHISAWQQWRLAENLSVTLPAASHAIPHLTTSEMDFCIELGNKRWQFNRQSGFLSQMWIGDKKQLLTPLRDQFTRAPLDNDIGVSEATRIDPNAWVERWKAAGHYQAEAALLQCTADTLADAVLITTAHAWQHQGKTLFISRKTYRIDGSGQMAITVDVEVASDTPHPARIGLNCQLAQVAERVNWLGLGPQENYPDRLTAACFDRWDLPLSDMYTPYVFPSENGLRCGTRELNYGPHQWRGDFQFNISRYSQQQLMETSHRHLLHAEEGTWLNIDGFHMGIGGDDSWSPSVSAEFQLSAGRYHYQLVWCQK

[1] = target: T3, Type-1 angiotensin II receptor (Homo sapiens, UniProt P30556); assay: antagonism of angiotensin II type 1 receptor – cell-based, uHTS hits, selectivity assay for APJ receptor antagonist project, dose response (AID 463214); assay type: functional;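 further: antagonist potency against angiotensin II stimulated AT1 response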
T3 sequence (P30556 whole entry): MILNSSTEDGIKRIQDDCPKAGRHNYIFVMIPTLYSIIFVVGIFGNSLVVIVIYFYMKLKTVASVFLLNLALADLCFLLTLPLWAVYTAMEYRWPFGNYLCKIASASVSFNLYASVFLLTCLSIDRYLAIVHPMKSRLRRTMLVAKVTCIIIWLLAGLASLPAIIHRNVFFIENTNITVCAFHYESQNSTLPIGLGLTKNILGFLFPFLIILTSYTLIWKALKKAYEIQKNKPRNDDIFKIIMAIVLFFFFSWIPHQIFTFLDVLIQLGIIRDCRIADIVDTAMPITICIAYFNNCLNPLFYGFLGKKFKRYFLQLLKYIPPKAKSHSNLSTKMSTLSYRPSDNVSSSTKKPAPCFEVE

[2] = target: Voltage-dependent T-type calcium channel subunit alpha-1H (Homo sapiens, UniProt O95180); assay type: functional;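 further: channel activity triggered by adding a high calcium stimulation buffer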
Chain of Voltage-dependent T-type calcium channel subunit alpha-1H (O95180 whole entry): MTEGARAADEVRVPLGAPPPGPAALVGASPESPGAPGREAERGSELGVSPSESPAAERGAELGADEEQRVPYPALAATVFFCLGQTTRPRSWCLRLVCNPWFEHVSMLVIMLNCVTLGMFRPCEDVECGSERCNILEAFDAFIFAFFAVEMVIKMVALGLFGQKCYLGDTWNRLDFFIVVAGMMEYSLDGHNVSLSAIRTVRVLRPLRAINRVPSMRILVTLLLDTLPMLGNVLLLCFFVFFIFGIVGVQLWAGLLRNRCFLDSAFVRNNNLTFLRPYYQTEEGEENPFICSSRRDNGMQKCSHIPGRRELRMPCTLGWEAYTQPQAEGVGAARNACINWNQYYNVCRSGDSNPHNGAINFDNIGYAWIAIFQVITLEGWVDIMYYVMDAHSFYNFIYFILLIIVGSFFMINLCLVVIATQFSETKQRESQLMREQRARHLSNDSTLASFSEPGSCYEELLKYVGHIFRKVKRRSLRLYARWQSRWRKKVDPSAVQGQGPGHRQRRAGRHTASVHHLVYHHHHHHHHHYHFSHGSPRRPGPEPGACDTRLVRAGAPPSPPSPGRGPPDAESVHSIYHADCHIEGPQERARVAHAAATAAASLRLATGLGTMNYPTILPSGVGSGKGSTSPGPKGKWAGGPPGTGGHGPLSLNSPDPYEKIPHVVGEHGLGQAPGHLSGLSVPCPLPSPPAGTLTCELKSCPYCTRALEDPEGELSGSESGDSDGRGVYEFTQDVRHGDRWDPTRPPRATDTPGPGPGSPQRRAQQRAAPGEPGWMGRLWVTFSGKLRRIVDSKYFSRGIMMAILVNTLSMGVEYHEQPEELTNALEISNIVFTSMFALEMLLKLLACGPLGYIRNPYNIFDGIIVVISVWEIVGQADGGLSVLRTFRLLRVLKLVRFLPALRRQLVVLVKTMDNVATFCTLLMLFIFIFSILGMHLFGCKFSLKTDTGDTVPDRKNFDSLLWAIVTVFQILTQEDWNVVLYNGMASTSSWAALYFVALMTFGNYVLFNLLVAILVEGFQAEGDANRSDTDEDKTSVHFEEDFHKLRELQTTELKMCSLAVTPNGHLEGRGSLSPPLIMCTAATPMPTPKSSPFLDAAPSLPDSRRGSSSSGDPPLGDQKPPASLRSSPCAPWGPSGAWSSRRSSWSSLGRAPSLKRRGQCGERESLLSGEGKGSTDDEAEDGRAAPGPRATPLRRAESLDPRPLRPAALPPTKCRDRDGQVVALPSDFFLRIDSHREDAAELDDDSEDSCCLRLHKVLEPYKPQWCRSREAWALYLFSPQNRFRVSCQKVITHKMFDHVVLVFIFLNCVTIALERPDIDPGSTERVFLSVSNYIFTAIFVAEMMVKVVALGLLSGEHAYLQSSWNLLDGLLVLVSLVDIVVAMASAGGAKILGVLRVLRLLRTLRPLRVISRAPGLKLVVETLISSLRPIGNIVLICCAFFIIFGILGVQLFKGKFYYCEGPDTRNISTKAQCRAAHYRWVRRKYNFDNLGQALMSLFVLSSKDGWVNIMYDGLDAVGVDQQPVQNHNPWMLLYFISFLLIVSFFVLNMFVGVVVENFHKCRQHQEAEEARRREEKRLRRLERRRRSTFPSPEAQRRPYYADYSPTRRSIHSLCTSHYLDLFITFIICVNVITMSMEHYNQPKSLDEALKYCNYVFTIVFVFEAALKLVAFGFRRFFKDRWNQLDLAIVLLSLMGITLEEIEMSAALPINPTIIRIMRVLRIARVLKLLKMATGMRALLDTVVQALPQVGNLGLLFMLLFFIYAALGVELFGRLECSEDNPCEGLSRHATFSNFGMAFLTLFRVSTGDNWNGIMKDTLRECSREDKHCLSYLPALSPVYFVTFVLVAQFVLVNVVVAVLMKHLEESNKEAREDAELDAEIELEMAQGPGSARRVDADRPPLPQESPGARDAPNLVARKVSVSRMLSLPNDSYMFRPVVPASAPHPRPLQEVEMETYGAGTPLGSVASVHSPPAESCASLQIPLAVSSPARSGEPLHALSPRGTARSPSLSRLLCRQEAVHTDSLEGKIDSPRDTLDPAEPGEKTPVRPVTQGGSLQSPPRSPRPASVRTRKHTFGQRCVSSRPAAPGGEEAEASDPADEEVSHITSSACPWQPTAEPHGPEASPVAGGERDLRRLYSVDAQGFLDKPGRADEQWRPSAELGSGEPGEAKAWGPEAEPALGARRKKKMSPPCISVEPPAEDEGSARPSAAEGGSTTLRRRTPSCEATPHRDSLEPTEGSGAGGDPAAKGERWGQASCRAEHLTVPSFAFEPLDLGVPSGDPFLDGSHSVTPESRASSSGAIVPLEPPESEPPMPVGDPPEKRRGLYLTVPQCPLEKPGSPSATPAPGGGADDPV

[3] = target: T4, Short transient receptor potential channel 4 (Mus musculus, UniProt Q9QUQ5); assay: block of DAMGO-driven TRPC4 calcium entry – cell-based, HEK293 TRPC4/mu-opioid, Fluo-4 calcium, dose response (AID 434942); assay type: functional;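 further: potency of inhibitors blocking the TRPC4 calcium response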
T4 sequence (Q9QUQ5 whole entry): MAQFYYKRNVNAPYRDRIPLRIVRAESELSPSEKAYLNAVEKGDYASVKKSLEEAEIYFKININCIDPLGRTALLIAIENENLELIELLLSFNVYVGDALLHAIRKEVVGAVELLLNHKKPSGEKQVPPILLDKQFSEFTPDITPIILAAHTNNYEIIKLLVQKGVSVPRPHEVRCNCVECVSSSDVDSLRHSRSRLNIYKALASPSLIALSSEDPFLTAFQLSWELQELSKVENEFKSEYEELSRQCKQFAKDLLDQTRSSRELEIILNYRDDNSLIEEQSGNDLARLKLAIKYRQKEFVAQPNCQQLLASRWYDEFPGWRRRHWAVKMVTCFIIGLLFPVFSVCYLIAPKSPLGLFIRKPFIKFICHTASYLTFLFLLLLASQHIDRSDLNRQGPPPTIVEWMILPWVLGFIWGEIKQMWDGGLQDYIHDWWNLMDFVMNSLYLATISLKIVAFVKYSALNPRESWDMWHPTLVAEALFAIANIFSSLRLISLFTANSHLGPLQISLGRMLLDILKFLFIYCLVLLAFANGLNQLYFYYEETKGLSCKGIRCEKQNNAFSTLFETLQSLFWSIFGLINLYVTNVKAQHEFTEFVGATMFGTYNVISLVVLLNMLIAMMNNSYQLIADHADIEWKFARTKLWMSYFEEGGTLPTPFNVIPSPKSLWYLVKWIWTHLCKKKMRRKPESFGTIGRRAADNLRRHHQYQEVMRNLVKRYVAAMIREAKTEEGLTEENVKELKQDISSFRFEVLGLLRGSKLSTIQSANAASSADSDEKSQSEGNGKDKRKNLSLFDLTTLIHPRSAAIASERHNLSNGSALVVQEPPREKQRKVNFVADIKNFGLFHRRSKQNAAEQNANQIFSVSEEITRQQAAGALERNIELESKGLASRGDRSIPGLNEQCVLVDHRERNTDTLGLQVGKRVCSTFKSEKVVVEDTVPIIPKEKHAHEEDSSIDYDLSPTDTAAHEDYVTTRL

HEK293 [4] = assay: cells; assay type: functional, cell-based; details: Homo sapiens
[5] = loss of viability in HepG2 cells – cell-based, CellTiter-Glo, cherry-picked, cytotoxicity control for Shn3 inhibitor project, dose response (AID 624134); assay type: functional
HEK293 [6] = assay: cells; assay type: functional, cell-based; details: Homo sapiens; remark: listed apart in the source
HEK293 [7] = assay: NOD2 signaling inhibitors in MDP-stimulated cells, cell-based, uHTS, luminescence (AID 2001); assay type: functional; details: Homo sapiens
HEK293 [8] = assay: inhibition of NOD1-driven NF-kB reporter – cell-based, luminescence, uHTS, primary screen (AID 1578); assay type: functional; details: Homo sapiens
[9] = HEK-293T viability loss after treatment – luminescence, T-cell screen hits, cytotoxicity control for TCR NF-kB inhibitor project, dose response (AID 489026); assay type: functional, cell-based;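 further: cells exposed to compound about 14 hours before the viability readout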
INS1 = assay: INS-1E survival protection against cytokine death – cell-based, luminescence, retest, dose response (AID 449756); assay type: functional; details: Rattus norvegicus;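 further: cell death triggered by IL-1 beta plus TNF-alpha plus IFN-gamma mixture; protective hits raise ATP signal compared with cytokine alone wells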
[10] = reduction of Shn3 3'UTR-driven luciferase in osteoblasts – cell-based, Clone20 osteoblasts, firefly luciferase, cherry-picked, dose response (AID 624132); assay type: functional;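 further: firefly luciferase luminescence from reporter carrying the Shn3 3'UTR in osteoblasts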
HEK293 [11] = assay: cells; assay type: functional, cell-based; details: Homo sapiens; remark: listed apart in the source
[12] = target: Nucleotide-binding oligomerization domain-containing protein 2 (Homo sapiens, UniProt Q9HC29); assay: inhibition of NOD2-driven NF-kB reporter – cell-based, luminescence, uHTS, HEK293 (AID 1566); assay type: functional
Chain of Nucleotide-binding oligomerization domain-containing protein 2 (Q9HC29 whole entry, the tested form may be a part): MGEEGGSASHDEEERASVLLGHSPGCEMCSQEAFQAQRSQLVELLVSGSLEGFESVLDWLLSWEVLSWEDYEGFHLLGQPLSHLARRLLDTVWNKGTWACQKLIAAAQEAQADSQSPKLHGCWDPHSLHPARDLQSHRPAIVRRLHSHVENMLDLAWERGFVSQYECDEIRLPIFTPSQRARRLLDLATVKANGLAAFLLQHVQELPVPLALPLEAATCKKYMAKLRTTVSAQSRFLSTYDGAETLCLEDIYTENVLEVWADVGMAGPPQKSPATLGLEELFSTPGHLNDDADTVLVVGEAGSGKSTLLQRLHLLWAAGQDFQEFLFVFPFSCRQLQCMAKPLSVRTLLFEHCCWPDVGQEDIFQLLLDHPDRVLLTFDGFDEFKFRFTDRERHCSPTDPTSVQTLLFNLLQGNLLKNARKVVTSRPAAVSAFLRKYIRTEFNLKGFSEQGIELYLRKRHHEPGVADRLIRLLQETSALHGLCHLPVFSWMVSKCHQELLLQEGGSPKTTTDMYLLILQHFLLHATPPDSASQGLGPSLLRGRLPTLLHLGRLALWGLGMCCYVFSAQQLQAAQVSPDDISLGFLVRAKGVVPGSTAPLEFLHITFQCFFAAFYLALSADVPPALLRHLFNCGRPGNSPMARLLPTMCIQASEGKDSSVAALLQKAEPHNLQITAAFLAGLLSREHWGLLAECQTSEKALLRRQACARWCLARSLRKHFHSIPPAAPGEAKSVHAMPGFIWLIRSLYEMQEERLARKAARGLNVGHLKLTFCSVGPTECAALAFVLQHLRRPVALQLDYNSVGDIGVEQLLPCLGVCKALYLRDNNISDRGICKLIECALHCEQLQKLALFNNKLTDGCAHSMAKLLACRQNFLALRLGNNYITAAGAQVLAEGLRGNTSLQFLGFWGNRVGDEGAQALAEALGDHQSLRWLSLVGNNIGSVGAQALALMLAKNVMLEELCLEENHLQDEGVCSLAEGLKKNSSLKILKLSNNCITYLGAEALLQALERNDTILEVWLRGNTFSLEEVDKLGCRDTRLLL

[13] = target: T5, Alkaline phosphatase, tissue-nonspecific isozyme (Homo sapiens, UniProt P05186); assay: potency against alkaline phosphatase TNAP – biochemical, luminescent, dose response, SAR follow-up (AID 1056)
T5 sequence (P05186 whole entry): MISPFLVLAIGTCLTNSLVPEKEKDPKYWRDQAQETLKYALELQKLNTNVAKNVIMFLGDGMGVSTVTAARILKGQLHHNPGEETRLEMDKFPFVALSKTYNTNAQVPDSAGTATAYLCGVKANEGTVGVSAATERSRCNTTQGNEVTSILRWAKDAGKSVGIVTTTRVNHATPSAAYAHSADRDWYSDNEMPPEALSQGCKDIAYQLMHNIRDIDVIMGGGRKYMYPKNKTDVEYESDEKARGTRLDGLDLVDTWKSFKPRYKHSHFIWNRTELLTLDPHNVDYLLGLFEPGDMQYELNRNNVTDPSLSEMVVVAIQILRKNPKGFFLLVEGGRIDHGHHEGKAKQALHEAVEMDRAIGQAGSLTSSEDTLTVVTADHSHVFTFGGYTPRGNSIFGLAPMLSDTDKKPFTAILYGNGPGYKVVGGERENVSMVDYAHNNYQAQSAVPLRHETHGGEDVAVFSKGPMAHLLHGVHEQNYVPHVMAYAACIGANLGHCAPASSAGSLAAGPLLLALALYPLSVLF

[14] = target: Alkaline phosphatase, placental type (Homo sapiens, UniProt P05187); assay: human placental alkaline phosphatase inhibition – biochemical, luminescence, confirmation (AID 1512); assay type: functional
Chain of Alkaline phosphatase, placental type (P05187 whole entry): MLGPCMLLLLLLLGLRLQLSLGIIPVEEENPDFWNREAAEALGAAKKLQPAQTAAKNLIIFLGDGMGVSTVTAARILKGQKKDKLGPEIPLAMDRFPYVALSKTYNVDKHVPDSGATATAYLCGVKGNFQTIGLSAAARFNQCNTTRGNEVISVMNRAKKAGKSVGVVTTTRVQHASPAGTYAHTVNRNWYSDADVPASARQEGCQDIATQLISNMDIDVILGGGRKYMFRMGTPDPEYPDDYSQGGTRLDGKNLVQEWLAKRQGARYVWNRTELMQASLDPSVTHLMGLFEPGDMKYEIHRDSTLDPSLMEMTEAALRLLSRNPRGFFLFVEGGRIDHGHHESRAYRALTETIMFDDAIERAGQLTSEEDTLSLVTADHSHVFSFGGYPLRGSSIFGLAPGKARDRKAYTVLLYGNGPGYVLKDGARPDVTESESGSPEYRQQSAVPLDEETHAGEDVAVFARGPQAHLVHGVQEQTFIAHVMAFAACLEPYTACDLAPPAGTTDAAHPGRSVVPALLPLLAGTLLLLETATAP

COCCN(C(S)=Nc1c(C)cc(C)cc1C)C(C)c1cccnc1 (stereo not drawn)
AC50 (Escherichia coli): 57.7 µM (active)

COc1cc(NC(=O)CSc2ncnc3scc(-c4ccccc4)c23)c(C(=O)O)cc1OC
IC50 (Leucine aminopeptidase): < 1 µM (active)
IC50 (Aminopeptidase N): 40.1 µM (active)

Cc1ccc(N=C2C(=O)Nc3c(C)cccc32)cc1
EC50 (Beta-galactosidase): > 40 µM (inactive)
IC50 [1]: > 40 µM (not active)

CC(C)(C)n1nnnc1CN(Cc1ccc(F)cc1)Cc1ccco1
EC50 [2]: 6.27 µM (active)

O=C(CCCSc1nc2ccccc2[nH]1)NCc1ccccc1Cl
EC50 [3]: 3.76 µM (active)

CN1CCN(c2nc3c(c(=O)n(C)c(=O)n3C)n2CC(=O)C23CC4CC(CC(C4)C2)C3)CC1
EC50 [3]: 2.11 µM (active)

COc1ccc(NS(=O)(=O)c2ccc(-c3cnc(C4CC4)o3)cc2)cc1OC
IC50 (HEK293 [4]): > 20 µM (inactive)
AC50 [5]: 2.32 µM (active)
IC50 (HEK293 [6]): 6.05 µM (active)
IC50 (HEK293 [7]): 6.25 µM (active)
EC50 (HEK293 [8]): 2.04 µM (active)
IC50 [9]: > 80 µM (inactive)
AC50 (INS1): 3.52 µM (active)
AC50 [10]: 1.33 µM (active)
IC50 (HEK293 [11]): 18.4 µM (active)
EC50 [12]: 14.4 µM (active)

O=C(COC(=O)CCc1ccc(S(=O)(=O)N2CCCCC2)cc1)Nc1ccc2c(c1)OCO2
EC50 [2]: 26.4 µM (active)

CN1CCN(Cc2nc3ccccc3c(=O)n2Cc2nc(-c3cccc([N+](=O)[O-])c3)cs2)CC1
IC50 (Aminopeptidase N): 79.7 µM (active)

O=C(CSc1nc2ccccc2o1)c1ccc(O)c(O)c1
IC50 [13]: 4.15 µM (active)
IC50 [14]: 3.06 µM (active)

CCOC(=O)C1(c2ccccc2)CCN(CC(=O)Nc2ccc(C)cc2)CC1
EC50 [3]: 2.99 µM (active)

— ChEMBL document CHEMBL1201862, “PubChem BioAssay data set” (2004)
